Experiments:
[1] = tested on: wheat; experiment: Foliage treatment test for upland field (Test Example 3): phytotoxicity to wheat; type: in vivo; conditions: foliage treatment at 1.0-2.0 leaf stage of southern crabgrass, examined after 3 weeks; also: key: 0: normal growth; 1: little damaged; 2: low damaged; 3: medium damaged; 4: serious damaged; 5: complete killed
Summary of the method: (§1)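 Crops sown in compost-mixed soil pots, kept in a glasshouse at 25° C. average. Effect scored after 3 weeks versus untreated control on a 0–5 scale (0 normal growth, 5 complete kill).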

[2] = tested on: Japanese bulrush (Scirpus juncoides); experiment: Weed control test for paddy field (Test Example 1): Japanese bulrush; type: in vivo; conditions: paddy pots, treated at 1.0 leaf stage of barnyard grass, examined after 3 weeks
Summary of the method: (§2)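 Paddy-soil pots flooded to 3 cm, seeded with weeds and transplanted with 2.0-leaf rice. Wettable-powder formulations diluted in water and applied dropwise at a prescribed active-ingredient dose per are at barnyard grass 1.0-leaf stage. After 3 weeks in a 25 °C glasshouse, growth inhibition versus untreated control scored 0–5 (0: <20%; 5: 100%).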

[3] = tested on: southern crabgrass (Digitaria ciliaris); experiment: Soil treatment test for upland field (Test Example 2): southern crabgrass; type: in vivo; conditions: soil treatment before germination, examined after 3 weeks
Summary of the method: (§3)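 Upland soil in 1/3,000 are pots was seeded and covered; compounds formulated as wettable powders, diluted with water to the prescribed active-ingredient dose, were sprayed uniformly onto the soil surface pre-emergence at 15 liters per are. After 3 weeks in a glasshouse at 25° C average, growth inhibition versus untreated control was graded 0–5.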

[4] = tested on: velvetleaf (Abutilon theophrasti); experiment: Soil treatment test for upland field (Test Example 2): velvetleaf; type: in vivo; conditions: soil treatment before germination, examined after 3 weeks
Summary of the method: as §3

[5] = tested on: wheat; experiment: Soil treatment test for upland field (Test Example 2): phytotoxicity to wheat; type: in vivo; conditions: soil treatment before germination, examined after 3 weeks; also: key: 0: normal growth; 1: little damaged; 2: low damaged; 3: medium damaged; 4: serious damaged; 5: complete killed
[6] = tested on: velvetleaf; experiment: Foliage treatment test for upland field (Test Example 3): velvetleaf; type: in vivo; conditions: foliage treatment at 1.0-2.0 leaf stage of southern crabgrass, examined after 3 weeks
Summary of the method: (§4)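 Weeds were sown in compost-soil pots in a 25° C glasshouse. Wettable-powder formulations, diluted in water to the prescribed active-ingredient dose, were sprayed at 15 liters per are when southern crabgrass reached the 1.0-2.0 leaf stage. After 3 weeks, growth inhibition versus untreated control was scored 0 (under 20%) to 5 (100%).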

[7] = tested on: flat sedge (Cyperus serotinus); experiment: Weed control test for paddy field (Test Example 1): flat sedge; type: in vivo; conditions: paddy pots, treated at 1.0 leaf stage of barnyard grass, examined after 3 weeks
Summary of the method: as §2

[8] = tested on: southern crabgrass; experiment: Foliage treatment test for upland field (Test Example 3): southern crabgrass; type: in vivo; conditions: foliage treatment at 1.0-2.0 leaf stage of southern crabgrass, examined after 3 weeks
Summary of the method: as §4

[9] = tested on: common lambsquaters (Chenopodium album); experiment: Soil treatment test for upland field (Test Example 2): common lambsquaters; type: in vivo; conditions: soil treatment before germination, examined after 3 weeks
Summary of the method: as §3

[10] = tested on: corn; experiment: Foliage treatment test for upland field (Test Example 3): phytotoxicity to corn; type: in vivo; conditions: foliage treatment at 1.0-2.0 leaf stage of southern crabgrass, examined after 3 weeks; also: key: 0: normal growth; 1: little damaged; 2: low damaged; 3: medium damaged; 4: serious damaged; 5: complete killed
Summary of the method: as §1

[11] = tested on: common lambsquaters; experiment: Foliage treatment test for upland field (Test Example 3): common lambsquaters; type: in vivo; conditions: foliage treatment at 1.0-2.0 leaf stage of southern crabgrass, examined after 3 weeks
Summary of the method: as §4

[12] = tested on: common purslane; experiment: Foliage treatment test for upland field (Test Example 3): common purslane; type: in vivo; conditions: foliage treatment at 1.0-2.0 leaf stage of southern crabgrass, examined after 3 weeks
Summary of the method: as §4

[13] = tested on: Monochoria (Monochoria vaginalis); experiment: Weed control test for paddy field (Test Example 1): Monochoria; type: in vivo; conditions: paddy pots, treated at 1.0 leaf stage of barnyard grass, examined after 3 weeks
Summary of the method: as §2

[14] = tested on: corn; experiment: Soil treatment test for upland field (Test Example 2): phytotoxicity to corn; type: in vivo; conditions: soil treatment before germination, examined after 3 weeks; also: key: 0: normal growth; 1: little damaged; 2: low damaged; 3: medium damaged; 4: serious damaged; 5: complete killed
[15] = tested on: soybean; experiment: Foliage treatment test for upland field (Test Example 3): phytotoxicity to soybean; type: in vivo; conditions: foliage treatment at 1.0-2.0 leaf stage of southern crabgrass, examined after 3 weeks
Summary of the method: as §1

[16] = tested on: rice plant; experiment: Weed control test for paddy field (Test Example 1): phytotoxicity to rice plant; type: in vivo; conditions: paddy pots, treated at 1.0 leaf stage of barnyard grass, examined after 3 weeks
Summary of the method: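 Rice transplanted at 2.0 leaf stage into flooded paddy soil pots (3 cm water) sown with weeds. Wettable powder applied dropwise at a prescribed active ingredient dose per are at 1.0 leaf stage of barnyard grass. Kept 3 weeks in glasshouse at 25 °C. Phytotoxicity scored 0 (normal) to 5 (killed) against untreated control.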

[17] = tested on: soybean; experiment: Soil treatment test for upland field (Test Example 2): phytotoxicity to soybean; type: in vivo; conditions: soil treatment before germination, examined after 3 weeks
[18] = tested on: barnyard grass (Echinochloa crusgalli); experiment: Weed control test for paddy field (Test Example 1): barnyard grass; type: in vivo; conditions: paddy pots, treated at 1.0 leaf stage of barnyard grass, examined after 3 weeks
Summary of the method: as §2

[19] = tested on: slender amaranth (Amaranthus viridis); experiment: Soil treatment test for upland field (Test Example 2): slender amaranth; type: in vivo; conditions: soil treatment before germination, examined after 3 weeks
Summary of the method: as §3

[20] = tested on: common purslane (Portulaca oleracea); experiment: Soil treatment test for upland field (Test Example 2): common purslane; type: in vivo; conditions: soil treatment before germination, examined after 3 weeks
Summary of the method: as §3

[21] = tested on: slender amaranth; experiment: Foliage treatment test for upland field (Test Example 3): slender amaranth; type: in vivo; conditions: foliage treatment at 1.0-2.0 leaf stage of southern crabgrass, examined after 3 weeks
Summary of the method: as §4

What does the source list for FC(F)(F)COC/C(=C\c1cccc(C(F)(F)F)c1)c1nc2cc(C(F)(F)F)ccc2o1 [Compound 85, (E)-2-(5-trifluoromethylbenzoxazol-2-yl)-1-(3-trifluoromethylphenyl)-3-(2,2,2-trifluoroethoxy)propene]?
Phytotoxicity wheat ([1]; dose 2.5 g ai/a): 1; Phytotoxicity wheat ([1]; dose 5 g ai/a): 1; Herbicidal Effect Japanese bulrush ([2]; dose 2.5 g ai/a): 4 (80%-less than 100%); Herbicidal Effect Japanese bulrush ([2]; dose 5 g ai/a): 5 (100%); Herbicidal Effect southern crabgrass ([3]; dose 2.5 g ai/a): 5 (100%); Herbicidal Effect southern crabgrass ([3]; dose 5 g ai/a): 5 (100%); melting point: 86 to 89 °C; Herbicidal Effect velvetleaf ([4]; dose 2.5 g ai/a): 5 (100%); Herbicidal Effect velvetleaf ([4]; dose 5 g ai/a): 5 (100%); Phytotoxicity wheat ([5]; dose 2.5 g ai/a): 0; Phytotoxicity wheat ([5]; dose 5 g ai/a): 0; Herbicidal Effect velvetleaf ([6]; dose 2.5 g ai/a): 5 (100%); Herbicidal Effect velvetleaf ([6]; dose 5 g ai/a): 5 (100%); Herbicidal Effect Flat sedge ([7]; dose 2.5 g ai/a): 3 (60%-less than 80%); Herbicidal Effect Flat sedge ([7]; dose 5 g ai/a): 4 (80%-less than 100%); Herbicidal Effect southern crabgrass ([8]; dose 2.5 g ai/a): 5 (100%); Herbicidal Effect southern crabgrass ([8]; dose 5 g ai/a): 5 (100%); Herbicidal Effect common lambsquaters ([9]; dose 2.5 g ai/a): 5 (100%); Herbicidal Effect common lambsquaters ([9]; dose 5 g ai/a): 5 (100%); Phytotoxicity corn ([10]; dose 2.5 g ai/a): 1; Phytotoxicity corn ([10]; dose 5 g ai/a): 1; Herbicidal Effect Common lambsquatters ([11]; dose 2.5 g ai/a): 5 (100%); Herbicidal Effect Common lambsquatters ([11]; dose 5 g ai/a): 5 (100%); Herbicidal Effect common purslane ([12]; dose 2.5 g ai/a): 5 (100%); Herbicidal Effect common purslane ([12]; dose 5 g ai/a): 5 (100%); Herbicidal Effect Monochoria vaginalis ([13]; dose 2.5 g ai/a): 5 (100%); Herbicidal Effect Monochoria vaginalis ([13]; dose 5 g ai/a): 5 (100%); Phytotoxicity corn ([14]; dose 2.5 g ai/a): 0; Phytotoxicity corn ([14]; dose 5 g ai/a): 0; Phytotoxicity soybean ([15]; dose 2.5 g ai/a): 2; Phytotoxicity soybean ([15]; dose 5 g ai/a): 2; Phytotoxicity Rice plant ([16]; dose 2.5 g ai/a): 0; Phytotoxicity Rice plant ([16]; dose 5 g ai/a): 0; Phytotoxicity soybean ([17]; dose 2.5 g ai/a): 0; Phytotoxicity soybean ([17]; dose 5 g ai/a): 0; Herbicidal Effect Barnyard grass ([18]; dose 2.5 g ai/a): 4 (80%-less than 100%); Herbicidal Effect Barnyard grass ([18]; dose 5 g ai/a): 5 (100%); Herbicidal Effect slender amaranth ([19]; dose 2.5 g ai/a): 5 (100%); Herbicidal Effect slender amaranth ([19]; dose 5 g ai/a): 5 (100%); Herbicidal Effect common purslane ([20]; dose 2.5 g ai/a): 5 (100%); Herbicidal Effect common purslane ([20]; dose 5 g ai/a): 5 (100%); Herbicidal Effect slender amaranth ([21]; dose 2.5 g ai/a): 5 (100%); Herbicidal Effect slender amaranth ([21]; dose 5 g ai/a): 5 (100%)

With COCC(=Cc1ccc(F)c(C(F)(F)F)c1)c1nc2cc(F)c(F)cc2o1 [Compound 126] as the molecule, how does the Phytotoxicity wheat ([1]; dose 2.5 g ai/a) read?
Its Phytotoxicity wheat is 0.

What about the Phytotoxicity wheat ([1]; dose 5 g ai/a) of the same molecule?
Its Phytotoxicity wheat is 1.

And the “Herbicidal Effect Japanese bulrush” value ([2]; dose 2.5 g ai/a)?
The value was 3 (60%-less than 80%).

What about the “Herbicidal Effect Japanese bulrush” value ([2]; dose 5 g ai/a) of the same molecule?
Its value is 4 (80%-less than 100%).

And the “Herbicidal Effect southern crabgrass” value ([3]; dose 2.5 g ai/a)?
The value was 4 (80%-less than 100%).

And the “Herbicidal Effect southern crabgrass” value ([3]; dose 5 g ai/a)?
Its value is 5 (100%).

And the “Herbicidal Effect velvetleaf” value ([4]; dose 2.5 g ai/a)?
The value was 3 (60%-less than 80%).

What about the “Herbicidal Effect velvetleaf” value ([4]; dose 5 g ai/a) of the same molecule?
Its value is 4 (80%-less than 100%).

What about the Phytotoxicity wheat ([5]; dose 2.5 g ai/a) of the same molecule?
Its Phytotoxicity wheat is 0.

What about the Phytotoxicity wheat ([5]; dose 5 g ai/a) of the same molecule?
The Phytotoxicity wheat was 0.

And the “Herbicidal Effect velvetleaf” value ([6]; dose 2.5 g ai/a)?
The value was 3 (60%-less than 80%).

What about the “Herbicidal Effect velvetleaf” value ([6]; dose 5 g ai/a) of the same molecule?
The value was 4 (80%-less than 100%).

And the “Herbicidal Effect Flat sedge” value ([7]; dose 2.5 g ai/a)?
The value was 2 (40%-less than 60%).

And the “Herbicidal Effect Flat sedge” value ([7]; dose 5 g ai/a)?
The value was 3 (60%-less than 80%).

And the “Herbicidal Effect southern crabgrass” value ([8]; dose 2.5 g ai/a)?
The value was 4 (80%-less than 100%).

What about the “Herbicidal Effect southern crabgrass” value ([8]; dose 5 g ai/a) of the same molecule?
The value was 5 (100%).

And the “Herbicidal Effect common lambsquaters” value ([9]; dose 2.5 g ai/a)?
The value was 5 (100%).

What about the “Herbicidal Effect common lambsquaters” value ([9]; dose 5 g ai/a) of the same molecule?
Its value is 5 (100%).

What about the Phytotoxicity corn ([10]; dose 2.5 g ai/a) of the same molecule?
The Phytotoxicity corn was 0.

And the Phytotoxicity corn ([10]; dose 5 g ai/a)?
The Phytotoxicity corn was 1.

What about the “Herbicidal Effect Common lambsquatters” value ([11]; dose 2.5 g ai/a) of the same molecule?
The value was 5 (100%).

And the “Herbicidal Effect Common lambsquatters” value ([11]; dose 5 g ai/a)?
The value was 5 (100%).

What about the “Herbicidal Effect common purslane” value ([12]; dose 2.5 g ai/a) of the same molecule?
Its value is 5 (100%).

And the “Herbicidal Effect common purslane” value ([12]; dose 5 g ai/a)?
Its value is 5 (100%).

And the “Herbicidal Effect Monochoria vaginalis” value ([13]; dose 2.5 g ai/a)?
The value was 5 (100%).

And the “Herbicidal Effect Monochoria vaginalis” value ([13]; dose 5 g ai/a)?
Its value is 5 (100%).

What about the Phytotoxicity corn ([14]; dose 2.5 g ai/a) of the same molecule?
The Phytotoxicity corn was 0.

And the Phytotoxicity corn ([14]; dose 5 g ai/a)?
Its Phytotoxicity corn is 0.

What about the Phytotoxicity soybean ([15]; dose 2.5 g ai/a) of the same molecule?
Its Phytotoxicity soybean is 1.

What about the Phytotoxicity soybean ([15]; dose 5 g ai/a) of the same molecule?
The Phytotoxicity soybean was 1.

What about the “Phytotoxicity Rice plant” value ([16]; dose 2.5 g ai/a) of the same molecule?
Its value is 0.

What about the “Phytotoxicity Rice plant” value ([16]; dose 5 g ai/a) of the same molecule?
The value was 0.

What about the Phytotoxicity soybean ([17]; dose 2.5 g ai/a) of the same molecule?
The Phytotoxicity soybean was 0.

What about the Phytotoxicity soybean ([17]; dose 5 g ai/a) of the same molecule?
Its Phytotoxicity soybean is 0.

And the “Herbicidal Effect Barnyard grass” value ([18]; dose 2.5 g ai/a)?
Its value is 5 (100%).

What about the “Herbicidal Effect Barnyard grass” value ([18]; dose 5 g ai/a) of the same molecule?
Its value is 5 (100%).

What about the “Herbicidal Effect slender amaranth” value ([19]; dose 2.5 g ai/a) of the same molecule?
Its value is 5 (100%).

What about the “Herbicidal Effect slender amaranth” value ([19]; dose 5 g ai/a) of the same molecule?
The value was 5 (100%).

And the “Herbicidal Effect common purslane” value ([20]; dose 2.5 g ai/a)?
The value was 5 (100%).

What about the “Herbicidal Effect common purslane” value ([20]; dose 5 g ai/a) of the same molecule?
Its value is 5 (100%).

What about the “Herbicidal Effect slender amaranth” value ([21]; dose 2.5 g ai/a) of the same molecule?
Its value is 5 (100%).

What about the “Herbicidal Effect slender amaranth” value ([21]; dose 5 g ai/a) of the same molecule?
The value was 5 (100%).
